# Read-outs that look alike come from different tables or passages of the source.
# Columns and labels:
# SREBP pathway = assay: SREBP luciferase reporter gene system (SRE-luciferase assay); assay type: cell-based, human; settings: Huh-7/SRE-luc cells, sterol-deficient medium, 0.01-10 µM
# Outline: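 Huh-7 cells stably carrying LDLR promoter-luciferase plus GFP were treated 16 h in sterol-deficient medium (5% lipoprotein-deficient serum, 2 µM lovastatin, 10 µM mevalonic acid) at 0.01–10 µM. Luciferase/GFP ratio measured as pathway activity; inhibition versus DMSO fitted to a four-parameter model for IC50.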
# [1] = test system: Fatty Acid Synthase (FASN) gene; assay: Inhibition of FASN gene expression (qPCR) in Huh-7 cells; assay type: cell-based, human; settings: Huh-7 cells, starvation medium, 16 hours, qPCR, class symbols, read-out: FASN IC50
# Outline: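 Huh-7 cells switched to starvation DMEM (5% LPDS, 2 µM lovastatin, 10 µM mevalonate) and treated 16 h with compound, top 3000 nM, 3-fold dilutions, 5 concentrations. FASN mRNA by RT-qPCR; inhibition relative to DMSO, IC50 from four-parameter fit.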
SMILES,"IC50 (SREBP pathway; Homo sapiens, Huh-7, 16 h) [µM]","IC50 ([1]; Homo sapiens, Huh-7, 16 h) [nM]",IC50 (SREBP pathway; 16 hours) [µM],IC50 [1] [nM]
"C[C@H](CCC(=O)N(C)c1ccccc1F)[C@H]1CC[C@H]2[C@H]3[C@H](CC[C@]12C)[C@@]1(C)CC[C@H](O)[C@H](O)[C@@H]1CC3(F)F [Compound 95, (4R)-4-[(1R,3aS,3bS,5aR,6R,7S,9aR,9bS,11aR)-4,4-difluoro-6,7-dihydroxy-9a,11a-dimethylhexadecahydro-1H-cyclopenta[1,2-a]phenanthren-1-yl]-N-(2-fluorophenyl)-N-methylpentanamide]",0.08,< 200,,
"CCOc1nc(F)ccc1[C@@H](O)CCC[C@@H](C)[C@H]1CC[C@H]2[C@H]3[C@H](CC[C@]12C)[C@@]1(C)CC[C@H](O)[C@H](O)[C@@H]1CC3(F)F (single isomer, unassigned) [Compound 289]",0.342,< 200,,
"C[C@H](CCC[C@@H](O)c1c(F)ccnc1F)[C@H]1CC[C@H]2[C@H]3[C@H](CC[C@]12C)[C@@]1(C)CC[C@H](O)[C@H](O)[C@@H]1CC3(F)F (single isomer, unassigned) [Compound 232]",0.151,200 to 500,,
"COc1cc(F)cc(F)c1C(O)CCC[C@@H](C)[C@H]1CC[C@H]2[C@H]3[C@H](CC[C@]12C)[C@@]1(C)CC[C@H](O)[C@H](O)[C@@H]1CC3(F)F (single isomer, unassigned) [Compound 200, (1R,3aS,3bS,5aR,6R,7S,9aR,9bS,11aR)-1-[(2R,6S)-6-(4,6-difluoro-2-methoxyphenyl)-6-hydroxyhexan-2-yl]-4,4-difluoro-9a,11a-dimethylhexadecahydro-1H-cyclopenta[1,2-a]phenanthrene-6,7-diol or (1R,3aS,3bS,5aR,6R,7S,9aR,9bS,11aR)-1-[(2R,6R)-6-(4,6-difluoro-2-methoxyphenyl)-6-hydroxyhexan-2-yl]-4,4-difluoro-9a, 11a-dimethylhexadecahydro-1H-cyclopenta[1,2-a]phenanthrene-6,7-diol]",0.053,< 200,,
"COc1cccc(F)c1C(O)CC[C@@H](C)[C@H]1CC[C@H]2[C@H]3[C@H](CC[C@]12C)[C@@]1(C)CC[C@H](O)[C@H](O)[C@@H]1CC3(F)F (single isomer, unassigned) [Compound 336]",0.31,< 200,,
"COc1nc(F)cc(F)c1C(O)CCC[C@@H](C)[C@H]1CC[C@H]2[C@H]3[C@H](CC[C@]12C)[C@@]1(C)CC[C@H](O)[C@H](O)[C@@H]1CC3(F)F (stereo partly drawn) [Compound 206, (1R,3aS,3bS,5aR,6R,7S,9aR,9bS,11aR)-1-[(2R)-6-(4,6-difluoro-2-methoxypyridin-3-yl)-6-hydroxyhexan-2-yl]-4,4-difluoro-9a,11a-dimethylhexadecahydro-1H-cyclopenta[1,2-a]phenanthrene-6,7-diol]",0.145,200 to 500,,
"COc1nc(F)cc(F)c1[C@@H](O)CCC[C@@H](C)[C@H]1CC[C@H]2[C@H]3[C@H](CC[C@]12C)[C@@]1(C)CC[C@H](O)[C@H](O)[C@@H]1CC3(F)F (single isomer, unassigned) [Compound 255]",0.107,200 to 500,,
"COc1ncccc1C(O)CCC[C@@H](C)[C@H]1CC[C@H]2[C@H]3[C@H](CC[C@]12C)[C@@]1(C)CC[C@H](O)[C@H](O)[C@@H]1CC3(F)F (single isomer, unassigned) [Compound 193, (1R,3aS,3bS,5aR,6R,7S,9aR,9bS,11aR)-4,4-difluoro-1-[(2R,6R)-6-hydroxy-6-(2-methoxypyridin-3-yl)hexan-2-yl]-9a,11a-dimethylhexadecahydro-1H-cyclopenta[1,2-a]phenanthrene-6,7-diol or (1R,3aS,3bS,5aR,6R,7S,9aR,9bS,11aR)-4,4-difluoro-1-[(2R,6S)-6-hydroxy-6-(2-methoxypyridin-3-yl)hexan-2-yl]-9a,11a-dimethylhexadecahydro-1H-cyclopenta[1,2-a]phenanthrene-6,7-diol]",,,0.072,200 to 500
"C[C@H](CCC[C@@H](O)c1nc2cnccc2n1C)[C@H]1CC[C@H]2[C@H]3[C@H](CC[C@]12C)[C@@]1(C)CC[C@H](O)[C@H](O)[C@@H]1CC3(F)F (stereo in doubt) [Compound 326, (1R,3aS,3bS,5aR,6R,7S,9aR,9bS,11aR)-4,4-difluoro-1-[(2R,6R)-6-hydroxy-6-(1-methylimidazo[5,4-c]pyridin-2-yl)hexan-2-yl]-9a,11a-dimethylhexadecahydro-1H-cyclopenta[1,2-a]phenanthrene-6,7-diol]",0.011,< 200,,
"COc1nc(F)ccc1C(O)CCC[C@@H](C)[C@H]1CC[C@H]2[C@H]3[C@H](CC[C@]12C)[C@@]1(C)CC[C@H](O)C[C@@H]1CC3(F)F (stereo partly drawn) [Compound 301, (1R,3aS,3bR,5aR,7S,9aS,9bS,11aR)-4,4-difluoro-1-[(2R)-6-(6-fluoro-2-methoxypyridin-3-yl)-6-hydroxyhexan-2-yl]-9a,11a-dimethylhexadecahydro-1H-cyclopenta[1,2-a]phenanthren-7-ol]",0.076,200 to 500,,
"C[C@H](CCCC(O)c1ccc(F)cc1F)[C@H]1CC[C@H]2[C@H]3[C@H](CC[C@]12C)[C@@]1(C)CC[C@H](O)[C@H](O)[C@@H]1CC3(F)F (stereo partly drawn) [Compound 102, (1R,3aS,3bS,5aR,6R,7S,9aR,9bS,11aR)-1-[(2R)-6-(2,4-difluorophenyl)-6-hydroxyhexan-2-yl]-4,4-difluoro-9a,11a-dimethylhexadecahydro-1H-cyclopenta[1,2-a]phenanthrene-6,7-diol]",0.14,< 200,,
"C[C@H](CCCC(O)c1c(F)cc(F)cc1F)[C@H]1CC[C@H]2[C@H]3[C@H](CC[C@]12C)[C@@]1(C)CC[C@H](O)[C@H](O)[C@@H]1CC3(F)F (stereo partly drawn) [Compound 69, (1R,3aS,3bS,5aR,6R,7S,9aR,9bS,11aR)-4,4-difluoro-1-[(2R)-6-hydroxy-6-(2,4,6-trifluorophenyl)hexan-2-yl]-9a,11a-dimethylhexadecahydro-1H-cyclopenta[1,2-a]phenanthrene-6,7-diol]",0.086,< 200,,
"COc1ccnc(F)c1[C@H](O)CCC[C@@H](C)[C@H]1CC[C@H]2[C@H]3[C@H](CC[C@]12C)[C@@]1(C)CC[C@H](O)[C@H](O)[C@@H]1CC3(F)F (single isomer, unassigned) [Compound 230]",0.062,< 200,,
"COc1nc(F)ccc1[C@H](O)CCC[C@@H](C)[C@H]1CC[C@H]2[C@H]3[C@H](CC[C@]12C)[C@@]1(C)CC[C@H](O)C[C@@H]1CC3(F)F [Compound 313, (1R,3aS,3bR,5aR,7S,9aS,9bS,11aR)-4,4-difluoro-1-[(2R,6R)-6-(6-fluoro-2-methoxypyridin-3-yl)-6-hydroxyhexan-2-yl]-9a,11a-dimethylhexadecahydro-1H-cyclopenta[1,2-a]phenanthren-7-ol]",0.076,500 to 900,,
"COc1cc(F)c([C@@H](O)CCC[C@@H](C)[C@H]2CC[C@H]3[C@H]4[C@H](CC[C@]23C)[C@@]2(C)CC[C@H](O)[C@H](O)[C@@H]2CC4(F)F)c(F)c1Br (single isomer, unassigned) [Compound 198]",0.058,< 200,,
"C[C@H](CCCC(O)c1nccs1)[C@H]1CC[C@H]2[C@H]3[C@H](CC[C@]12C)[C@@]1(C)CC[C@H](O)[C@H](O)[C@@H]1CC3(F)F (stereo partly drawn) [Compound 89, (1R,3aS,3bS,5aR,6R,7S,9aR,9bS,11aR)-4,4-difluoro-1-[(2R)-6-hydroxy-6-(1,3-thiazol-2-yl)hexan-2-yl]-9a,11a-dimethylhexadecahydro-1H-cyclopenta[1,2-a]phenanthrene-6,7-diol]",0.183,< 200,,
"COc1cccc(F)c1[C@H](O)CC[C@@H](C)[C@H]1CC[C@H]2[C@H]3[C@H](CC[C@]12C)[C@@]1(C)CC[C@H](O)[C@H](O)[C@@H]1CC3(F)F [Compound 346, (1R,3aS,3bS,5aR,6R,7S,9aR,9bS,11aR)-4,4-difluoro-1-[(2R,5R)-5-(2-fluoro-6-methoxyphenyl)-5-hydroxypentan-2-yl]-9a,11a-dimethylhexadecahydro-1H-cyclopenta[1,2-a]phenanthrene-6,7-diol]",0.056,< 200,,
"COc1ccc(C(O)CCC[C@@H](C)[C@H]2CC[C@H]3[C@H]4[C@H](CC[C@]23C)[C@@]2(C)CC[C@H](O)[C@H](O)[C@@H]2CC4(F)F)c(F)n1 (single isomer, unassigned) [Compound 241, (1R,3aS,3bS,5aR,6R,7S,9aR,9bS,11aR)-4,4-difluoro-1-[(2R,6R)-6-(2-fluoro-6-methoxypyridin-3-yl)-6-hydroxyhexan-2-yl]-9a,11a-dimethylhexadecahydro-1H-cyclopenta[1,2-a]phenanthrene-6,7-diol or (1R,3aS,3bS,5aR,6R,7S,9aR,9bS,11aR)-4,4-difluoro-1-[(2R,6S)-6-(2-fluoro-6-methoxypyridin-3-yl)-6-hydroxyhexan-2-yl]-9a,11a-dimethylhexadecahydro-1H-cyclopenta[1,2-a]phenanthrene-6,7-diol]",0.14,< 200,,
"COc1cc(F)cc(F)c1C(O)CCC[C@@H](C)[C@H]1CC[C@H]2C3CC[C@H]4[C@@H](O)[C@@H](O)CC[C@]4(C)[C@H]3CC[C@]12C (stereo in doubt) [Compound 104, (1R,3aS,5aR,6R,7S,9aR,9bS,11aR)-1-[(2R)-6-(2,4-Difluoro-6-methoxyphenyl)-6-hydroxyhexan-2-yl]-9a,11a-dimethylhexadecahydro-1H-cyclopenta[1,2-a]phenanthrene-6,7-diol]",0.25,200 to 500,,

# Source: patent publication EP4752152A1, “STEROID COMPOUND, AND PREPARATION METHOD THEREFOR AND USE THEREOF” (Cholesgen (Shanghai) Co.Ltd., priority 2023, dated 2025)
